Reference: paper PMC11079029, “Intramolecular autoinhibition regulates the selectivity of PRPF40A tandem WW domains for proline-rich motifs” (Nature Communications, 2024)
Where two headings read alike, the source gives them in different places.

Assays:
PRPF40A WW12 = assay: NMR titration (1H-15N HSQC, chemical shift perturbation) of WW12 with polyproline or SF1 peptides; format: binding, human; details: 15N-labelled WW12 around 100 μM, unlabelled GB1-tagged peptide, 25 °C
Description: (§1) NMR samples were prepared at concentrations ranging 100–1000 μM in buffer containing 20 mM sodium phosphate pH 6.5, 100 mM NaCl, 1 mM DTT, and 10% or 100% D2O, and measured at 25 °C (except stated otherwise) in 900-, 800-, 600- and 500-MHz Bruker Avance III NMR spectrometers equipped with cryogenic triple resonance gradient probes. Topspin 4.1.0 (Bruker) software was used for NMR data acquisition. Spectra were processed with NMRpipe 8.9[76] and analyzed using ccpnNMR Analysis 2.5 software.
(§2) ^15N-labeled PRPF40A proteins (WW1, WW2, WW12, and N-extWW12) at around 100 μM concentration were titrated with increasing concentration ratios of polyproline or SF1 peptides (GB1 tagged) until reaching saturation, when possible; ^1H-^15N HSQC experiments and in some cases ^1H-^13C HSQC experiments (using double-labeled PRPF40A proteins) were acquired at each titration point. The chemical shift perturbation (CSP) was weighted using the Eqs. (1) and (2)[89].1 CSP(HN)=0.5⋅ΔδH2+0.14⋅ΔδN2 2 CSP(HC)=0.5⋅ΔδH2+0.3⋅ΔδC2

[1] = biological target: T1, PRPF40A N-ext-WW12 (residues 56–236) (Homo sapiens, UniProt O75400); assay: ITC of N-terminally extended WW12 with SF1 peptides; format: binding; details: for Kd: ITC
T1 construct: WW12long 141–248, and N-ext-WW12 56–236; 6xHis-TEV site (N, cleaved yes); made in house; host or cells: Escherichia coli BL21(DE3)
T1 sequence (O75400 56-236): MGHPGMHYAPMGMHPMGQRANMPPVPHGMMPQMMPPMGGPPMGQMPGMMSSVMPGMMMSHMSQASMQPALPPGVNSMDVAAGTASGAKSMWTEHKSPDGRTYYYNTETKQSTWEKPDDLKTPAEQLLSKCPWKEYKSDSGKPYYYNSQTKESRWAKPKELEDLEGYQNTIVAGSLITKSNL
From the text: (§3) PRPF40A isoform 1 sequences (N-ter 1–310, WW12short 141–223, WW12 141–236, WW12long 141–248, and N-ext-WW12 56–236) were amplified from a purchased DNA fragment (IDT) and cloned using NcoI and KpnI restriction sites into a pETM11 vector encoding 6xHis and TEV cleavage site as a N-terminal tag. SF1 (Pro A 410–468, Pro B 468–539, Pro C 539–594, Pro D 594–639, Pro BC 468–594, Pro CD 539–639, Pro BCD 468–639 and Pro ABCD 410–639) and SF3A1 (Middle Pro 364–413 and C-ter Pro 552–683) constructs were prepared in a similar manner using a pET24 vector with a 6xHis, GB1 and TEV cleavage site as N-terminal fusion cassette. 16-mer SF1 constructs (Table 1) and polyproline peptides (P6, P8, P10, P13, P16, P19, P22, P25, and P29) were cloned in the same pET24 vector with GB1 tag by direct ligation of purchased oligonucleotides (Eurofins). All peptide sequences contained N and C-terminal common residues to avoid boundary effects on binding: TEVsite-GAMSGS-peptide-SGSN. Mutants of PRPF40A WW12 and N-ext-WW12 constructs were prepared by site-directed mutagenesis. The truncated version of PRPF40A WW12 (141-217) was a gift from Dr. María Macías (IRB, Spain). All used oligonucleotides were purchased from Eurofins Genomics and are shown in Supplementary Table 6.
(§4) Resuspended cell pellets in 20 mM Tris pH 8.0, 500 mM NaCl, 10 mM imidazole, 0.5 mM TCEP, and protease inhibitors mix (SERVA) were lysed by cell disruption in a French press. Clear lysates, after centrifugation (at 18,000 g) and filtering, were loaded into Ni-NTA resin. The resin was then washed with 20 mM imidazole containing buffer, and the desired protein was eluted with 500 mM imidazole. PRPF40A constructs were then subjected to TEV protease treatment (homemade at a final concentration of ≈50 μg/ml), dialyzed overnight at 4 °C against an imidazole-free buffer, and then loaded again to Ni-NTA resin; desired digested proteins were obtained in the flow-through and wash fractions while uncleaved protein, TEV protease, and impurities remained bound to the resin. Cleaved PRPF40A proteins and GB1-tagged SF1, SF3A1, and polyproline constructs were further purified by size-exclusion chromatography on a HiLoad 16/60 Superdex 75 column (GE Healthcare) equilibrated with 20 mM sodium phosphate, pH 6.5, 100 mM NaCl and 1 mM DTT buffer. For the purification of PRPF40A WW12 in complex with SF1 peptide, cell pellets of recombinant expression for both proteins were mixed and processed together following the Ni-NTA—TEV digestion—reverse Ni-NTA—SEC-75 protocol; where the complex remained bound in a 1:1 stoichiometry throughout the whole purification (corroborated by NMR). Molecular weight of each sample was confirmed by mass spectrometry, purity was checked by PAGE-SDS, and protein concentrations were determined from the aromatic contribution to the UV absorbance spectra at 280 nm.
(§5) Experiments were conducted on a MicroCAl PEAQ-ITC (Malvern Instruments, UK) at 25 °C in 20 mM sodium phosphate pH 6.5 and 100 mM NaCl. PRPF40A was titrated into N-terminal GB1 tagged SF1 or polyproline constructs and vice versa with similar results. Protein concentrations in the cell were around 20–40 μM, while in the syringe ranged between 200 and 500 μM. Experiments were performed at least in duplicate with injections of 1.5 μL (0.4 μL for first point) separated by 150 s delays to recover thermal power baseline and continuous stirring in the cell (750 rpm) for correct mixing. The reference cell was filled with water in all experiments. Data were processed by removing the blank experiment (using digested GB1 fusion protein) and adjusted to one-site binding model with Malvern PEAQ-ITC Analysis software (Malvern Instruments, UK).

[2] = biological target: T2, PRPF40A WW12 (tandem WW domains, residues 141–236) (Homo sapiens, UniProt O75400); assay: ITC of PRPF40A WW12 with GB1-tagged proline-rich peptides and constructs; format: binding
T2 construct: WW12 141–236, WW12long 141–248, and N-ext-WW12 56–236; 6xHis-TEV site (N, cleaved yes); made in house; host or cells: Escherichia coli BL21(DE3)
From the text: as §3, §4, §5

PRPF40A N-ext-WW12 = assay: NMR titration (1H-15N and 1H-13C HSQC) of N-ext-WW12 with SF1 peptides; format: binding, human; details: NMR titration of N-ext-WW12, ratios 1:1 up to 1:4
Description: as §1, §2

Sequence: PPLPPGAPPPPPPPPP [SF1WWbs]
- binding by NMR titration, exchange regime (PRPF40A WW12): slow exchange regime
- N (sites) ([1]; ITC as E7): 0.88 ± 0.03 sites
- DH ([1]; ITC binding enthalpy, as E7): -15.8 ± 0.884 kcal/mol
- Kd ([1]; 25 °C, 20 mM sodium phosphate pH 6.5, 100 mM NaCl, GB1-tagged SF1 16-mer, N-terminally extended WW12, at least duplicates, listed as 575 PPLPPGAPPPPPPPPP 590, read-out: Kd): 8710 ± 880 nM
- Kd ([1]; 25 °C, 20 mM sodium phosphate pH 6.5, 100 mM NaCl, GB1-tagged SF1 16-mer, N-terminally extended WW12, at least duplicates, read-out: Kd): < 10000 nM
- Kd ([1]; SF1 peptides, individual value 1 (replicate 1), read-out: Kd Values with Nter Ext WW12, individual value): 9190 nM
- Kd ([1]; SF1 peptides, individual value 2 (replicate 2), read-out: Kd Values with Nter Ext WW12, individual value): 8220 nM
- N (sites) ([2]; ITC as E1, peptide in the cell, WW tandem in the syringe, N >1 = more than one WW tandem per peptide): 1.00 ± 0.03 sites
- DH ([2]; ITC binding enthalpy, as E1): -19.6 ± 0.406 kcal/mol
- Kd (µM) ([2]; ITC, 25 °C, 20 mM sodium phosphate pH 6.5, 100 mM NaCl, GB1-tagged polyproline or SF1 16-mer peptide in the cell, WW tandem in the syringe, one-site model, apparent Kd, average of at least duplicates): low micromolar range
- Kd ([2]; ITC, SF1 peptides, individual value 1 (replicate 1), read-out: Kd Values with WW12, individual value): 1290 nM
- Kd ([2]; ITC, SF1 peptides, individual value 2 (replicate 2), read-out: Kd Values with WW12, individual value): 1240 nM
- Kd ([2]; ITC, SF1 peptides, individual value 3 (replicate 3), read-out: Kd Values with WW12, individual value): 1620 nM
- Kd ([2]; ITC, SF1 peptides, individual value 5 (replicate 5), read-out: Kd Values with WW12, individual value): 1290 nM
- Kd ([2]; ITC, mean over the peptides of the classification group, read-out: Kd Values with WW12, averaged group): 1400 nM
- displacement of the intramolecular N-terminal motifs (methyl signals Val 80, Val 129) (PRPF40A N-ext-WW12): able to displace the intramolecular interaction
